Data set [1] is described as follows: Liposome encapsulation test (Test Example 6). Format: physicochemical. On the procedure:
6.48 g of hydrogenated soybean phosphatidylcholine (COATSOME NC-21E, NOF Corporation), 2.32 g of cholesterol (Sigma) and 2.06 g of distearoylphosphatidylethanolamine-methoxypolyethylene glycol 2000 (SUNBRIGHT DSPE-020CN, NOF Corporation) were dissolved in 560 mL of t-butyl alcohol heated to 65° C. The solution was frozen with dry ice/acetone bath and t-butyl alcohol was then removed by evaporation under reduced pressure to obtain a lipid mixture.
200 mL of 250 mM ammonium sulfate solution was added to the lipid mixture. The resulting mixture was heated to 65° C. and dispersed with a homogenizer (ULTRA-TURRAX, IKA) to obtain a crude liposome dispersion. […] The prepared amount was increased or decreased appropriately.
2 to 3 mg of the test compound was weighed out. […] An aqueous 1 mol/L hydrochloric acid or 1 mol/L sodium hydroxide solution was added to adjust the pH to 5.5 to 7. […] Insolubles, when present, were removed by centrifugation for 5 minutes at 15,000× g.
The liposome encapsulation ratio was calculated as follows.
100 μL of liposome solution was passed through an ultrafiltration filter (Amicon Ultra, 100K, 0.5 mL, Merck), and centrifuged at 4° C. at 15,000×g for 10 minutes. The concentration of the compound in the filtrate after ultrafiltration was measured by HPLC as the unencapsulated compound concentration.
The liposome solution was diluted with a trifluoroacetic acid/water/methanol mixture (0.1/25/75) and was left standing for 10 minutes or longer at 5° C. The solution was centrifuged for 5 minutes at 15,000× g to remove insolubles. The compound concentration in the supernatant was measured by HPLC as the compound concentration in the liposome solution.
The encapsulation ratio and the encapsulation efficiency were calculated by the following equations.
HPLC measurement conditions are the following.

Data set [2] has as its system Human bone marrow CD34 positive hematopoietic stem cells. In words: Human bone marrow cell myeloid lineage differentiation induction test. Format: cell-based. To be noted: 3 nM. On the procedure:
Human bone marrow CD34 positive hematopoietic stem cells were obtained from Lonza K. K. The frozen cells were thawed in a 1% fetal bovine serum containing IMDM medium and suspended in a Complete hemaTox® Myeloid Medium. 1000 cells were seeded per well in a 96-well plate. The evaluated compound was added so that the final concentration of DMSO would be 0.1% and 3 nM, and the cells were cultured for 7 days at 37° C. in the presence of 5% CO2. After completion of culture, half of the amount of cell suspension was retrieved from each well. The luminescence was measured using CellTiter-Glo® 3D Reagent (Promega, G968B) to calculate the cell survival percentage by the following equation.

The next data set concerns the target CYP3A4 (Homo sapiens (Human), UniProt P08684). Kind of data set: CYP3A4 MBI and enzyme inactivation clearance evaluation. As to conditions: for Factor of change in IC50 value: human liver microsome, pre-incubation in the presence of NADPH. The class given is in vitro ADME. How it is done: The effect and mode of inhibition of the test compound on CYP3A4 were evaluated using a human liver microsome as an enzyme source and midazolam or testosterone as a substrate. […] The IC50 value was calculated from a concentration plot.

Data set [3] relates to Human bone marrow CD34 positive hematopoietic stem cells. In words: Human bone marrow cell colony formation test (hemotoxicological evaluation). Format: cell-based. To be noted: 100 nM; for Colony count (/well) mean: 48 hours, then about 2 weeks culture. On the procedure:
Human bone marrow CD34 positive hematopoietic stem cells were obtained from Lonza K.K. The frozen cells were thawed in a medium prepared by mixing a Methocult Express medium and a 10% fetal bovine serum with 1% penicillin/streptomycin containing RPMI 1640 medium at 9:1. 5000 cells were seeded per well in a 6 well plate and cultured overnight at 37° C. in the presence of 5% CO2. The evaluated compound was added so that the final concentration of DMSO would be 0.1% and 100 nM, and the cells were cultured for 48 hours. The cells were retrieved and washed with PBS. ⅙ of the amount of cells was seeded in a 12 well plate and cultured for about 2 weeks at 37° C. in the presence of 5% CO2. After completion of culture, the number of colonies formed was calculated using Thiazolyl blue tetrazolium bromide (MTT).

For a further data set, the target named is ARK5/NUAK1 (Homo sapiens (Human), UniProt O60285). In words: Kinase selectivity test (HotSpot Full Panel Kinase profiling). The class given is biochemical. As to conditions: ARK5/NUAK1, compound 100 nM, ATP 10 μm; read-out: Residual activity (%).
ARK5/NUAK1, sequence (O60285 whole entry): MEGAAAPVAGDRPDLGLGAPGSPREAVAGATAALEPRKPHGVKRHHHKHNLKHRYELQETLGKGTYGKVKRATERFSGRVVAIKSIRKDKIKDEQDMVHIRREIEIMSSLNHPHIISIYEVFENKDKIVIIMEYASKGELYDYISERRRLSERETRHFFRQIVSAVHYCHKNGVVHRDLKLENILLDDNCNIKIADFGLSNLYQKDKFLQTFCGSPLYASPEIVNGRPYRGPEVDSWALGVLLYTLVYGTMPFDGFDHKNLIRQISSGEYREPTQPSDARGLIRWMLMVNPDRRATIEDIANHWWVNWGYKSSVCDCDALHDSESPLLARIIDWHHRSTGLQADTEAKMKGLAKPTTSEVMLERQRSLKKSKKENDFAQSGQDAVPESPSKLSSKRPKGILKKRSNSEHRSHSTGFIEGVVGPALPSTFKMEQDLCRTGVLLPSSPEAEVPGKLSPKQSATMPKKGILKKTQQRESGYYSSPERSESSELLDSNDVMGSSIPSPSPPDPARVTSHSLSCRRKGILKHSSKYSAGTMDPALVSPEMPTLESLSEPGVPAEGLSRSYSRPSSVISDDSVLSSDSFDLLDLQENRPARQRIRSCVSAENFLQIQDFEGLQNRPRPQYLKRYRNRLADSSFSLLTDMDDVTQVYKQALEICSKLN
Data set [4] relates to ES-2 cells. In words: Cell growth suppression experiment. The class given is cell-based. How it is done:
ES-2 cells were obtained from the American Type Culture Collection (ATCC). These cells were cultured at 37° C. in the presence of 5% CO2 in a 10% fetal bovine serum, 1% penicillin/streptomycin containing McCoy's 5a medium.
500 cells were seeded for each well in a 384-well plate, and the evaluated compound was added so that the final concentration of DMSO would be 0.1% to culture the cells for 2 days. After completion of the culture, the cell viability rate was calculated using CellTiter-Glo® 3D Reagent (Promega, G968B).
The results of cell growth suppression test on representative compounds of the present disclosure are listed in the following table based on the ranking of I, IT, III, IV, and V (1000 nM<I, 1000 nM>TI>300 nM, 300 nM>III>100 nM, 100 nMV>IV>30 nM, 30 nM>V).

The nature of data set [5]: Liposome encapsulation test of Example 1 (Test Example 6a). The class given is physicochemical.
For data set [6], the system named is mouse breast cancer cells EMT6. In words: Intracytoplasmic ssDNA evaluation test in cells. The class given is cell-based. As to conditions: EMT6, 24 hours treatment, versus DMSO. On the procedure:
(§1) After 24 hours from seeding of mouse breast cancer cells EMT6 and mouse renal cancer cells Renca, the cells were treated with Example 1 and DMSO and cultured for 24 hours. Thereafter, the cells were collected, and cytoplasmic components were extracted using NE-PER Nuclear and Cytoplasmic Extraction so Reagents (Thermo Fisher Scientific Inc.). After protein quantification and concentration adjustment, ssDNA was quantified using Qbit ssDNA Assay Kit (Thermo Fisher Scientific Inc.).

Data set [7] has as its system mouse renal cancer cells Renca. Kind of data set: Intracytoplasmic ssDNA evaluation test in cells. To be noted: 24 hours treatment, versus DMSO. The class given is cell-based. On the procedure: as §1
The next data set addresses hERG current (Homo sapiens (Human), UniProt Q12809). Kind of data set: hERG current blocking test. To be noted: for hERG/CHK1: IC50 of hERG divided by IC50 of CHK1 inhibition. For orientation: Block of hERG is tested as a sign of cardiac risk.
The next data set deals with CHK1 (Homo sapiens (Human), UniProt O14757). In words: CHK1 inhibitory activity test (IMAP TR-FRET). A general note: In TR-FRET formats the signal depends on donor and acceptor labels being close together.
CHK1, sequence (O14757 whole entry): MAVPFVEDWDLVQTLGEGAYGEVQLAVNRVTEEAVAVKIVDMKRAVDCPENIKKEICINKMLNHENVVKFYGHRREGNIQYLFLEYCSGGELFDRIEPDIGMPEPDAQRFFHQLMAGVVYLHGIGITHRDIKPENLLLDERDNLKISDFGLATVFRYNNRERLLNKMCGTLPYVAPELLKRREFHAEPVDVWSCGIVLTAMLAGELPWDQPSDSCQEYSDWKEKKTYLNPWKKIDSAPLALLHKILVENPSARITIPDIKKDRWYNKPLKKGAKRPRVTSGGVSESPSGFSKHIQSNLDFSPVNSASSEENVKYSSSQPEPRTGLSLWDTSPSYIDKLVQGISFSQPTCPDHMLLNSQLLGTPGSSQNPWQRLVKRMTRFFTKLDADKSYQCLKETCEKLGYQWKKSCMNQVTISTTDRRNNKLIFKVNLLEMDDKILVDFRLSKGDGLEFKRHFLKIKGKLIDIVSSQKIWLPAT
In data set [8] the test system is head and neck squamous cell carcinoma. To be noted: head and neck squamous cell carcinoma (Non Patent Literature 7); cited from earlier work.
Data set [9] relates to ES-2 cells. In words: Concomitantly used drug efficacy evaluation test using tumor-bearing mice transplanted with ES-2 cells (gemcitabine). Format: in vivo, BALB/c-nu/nu mice. As to conditions: Peritoneal, 30 mg/kg, 14 days, 2 times/week. The text has this:
The test compound was weighed out.

In a further data set the test system is neutrophils. To be noted: 30 mg/kg, 14 days, 2 times/week, blood 96 hours after the final administration.
Setting [10] is: concentration upon compound introduction 2 mg/mL.
The mark [11] stands for this setting: concentration upon compound introduction 3 mg/mL.

pIC50: −log10 of the molar value. Where only a bound is given, the exact number is not on record here.

CYP3A4, sequence (P08684 whole entry): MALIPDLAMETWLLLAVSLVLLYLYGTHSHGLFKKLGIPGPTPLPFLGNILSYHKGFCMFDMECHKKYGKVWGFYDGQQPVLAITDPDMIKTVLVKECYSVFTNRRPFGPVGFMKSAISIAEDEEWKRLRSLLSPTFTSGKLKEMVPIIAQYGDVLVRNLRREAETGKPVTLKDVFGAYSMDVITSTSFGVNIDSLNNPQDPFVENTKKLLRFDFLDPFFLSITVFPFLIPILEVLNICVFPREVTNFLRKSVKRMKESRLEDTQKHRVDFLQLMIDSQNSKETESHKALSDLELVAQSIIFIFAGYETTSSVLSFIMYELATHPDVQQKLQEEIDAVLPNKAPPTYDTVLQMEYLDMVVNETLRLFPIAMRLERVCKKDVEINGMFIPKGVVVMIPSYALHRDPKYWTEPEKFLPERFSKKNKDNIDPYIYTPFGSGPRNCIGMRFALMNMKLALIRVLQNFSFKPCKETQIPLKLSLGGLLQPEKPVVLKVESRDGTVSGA
hERG current, sequence (Q12809 whole entry): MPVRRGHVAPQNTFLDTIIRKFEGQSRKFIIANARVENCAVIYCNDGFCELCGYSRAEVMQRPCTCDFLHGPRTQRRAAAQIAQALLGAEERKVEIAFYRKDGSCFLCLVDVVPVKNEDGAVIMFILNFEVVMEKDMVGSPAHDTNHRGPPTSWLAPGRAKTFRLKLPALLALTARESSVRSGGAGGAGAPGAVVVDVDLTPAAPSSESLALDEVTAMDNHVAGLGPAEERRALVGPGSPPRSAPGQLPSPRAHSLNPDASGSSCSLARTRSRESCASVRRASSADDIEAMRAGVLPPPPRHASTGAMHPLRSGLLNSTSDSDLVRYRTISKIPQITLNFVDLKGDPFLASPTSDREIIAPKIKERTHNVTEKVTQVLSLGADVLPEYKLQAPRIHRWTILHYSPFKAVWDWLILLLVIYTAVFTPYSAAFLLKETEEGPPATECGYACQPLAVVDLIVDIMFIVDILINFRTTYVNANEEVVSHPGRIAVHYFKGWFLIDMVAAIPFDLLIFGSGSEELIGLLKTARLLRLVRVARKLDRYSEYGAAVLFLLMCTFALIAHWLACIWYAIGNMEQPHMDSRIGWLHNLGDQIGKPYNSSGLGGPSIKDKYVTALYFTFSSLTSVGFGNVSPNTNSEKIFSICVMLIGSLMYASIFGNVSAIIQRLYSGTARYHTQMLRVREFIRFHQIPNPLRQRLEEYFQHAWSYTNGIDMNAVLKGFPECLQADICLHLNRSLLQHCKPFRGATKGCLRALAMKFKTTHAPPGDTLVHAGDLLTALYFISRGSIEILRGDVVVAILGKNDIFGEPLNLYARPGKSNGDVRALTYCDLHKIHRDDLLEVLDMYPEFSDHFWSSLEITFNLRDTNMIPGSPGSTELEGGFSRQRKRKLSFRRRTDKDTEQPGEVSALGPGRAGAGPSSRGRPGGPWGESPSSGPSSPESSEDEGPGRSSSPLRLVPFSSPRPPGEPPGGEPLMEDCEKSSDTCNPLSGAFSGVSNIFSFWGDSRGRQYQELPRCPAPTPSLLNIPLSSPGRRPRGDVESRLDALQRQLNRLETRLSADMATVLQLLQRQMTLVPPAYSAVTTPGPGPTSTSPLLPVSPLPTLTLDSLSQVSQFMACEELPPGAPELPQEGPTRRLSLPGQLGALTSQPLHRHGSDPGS
Protocol for CHK1: IMAP TR-FRET Screening Express Kit (R8160) was obtained from Molecular Devices. […] FAM-PKAtide (R7255, Molecular Devices) and FAM-Phospho-PKAtide (R7304, Molecular Devices) were admixed after dilution, and calibration standard systems for phosphorylation levels from 0 to 100% were created. 5 μL of a compound dissolved in a 0.4% DMSO solution was added to a 384 well plate. A compound study group to which 5 μL of each of CHK1, CHK1tide, and ATP was added, and a standard group to which 20 μL of standard was added were created, and subjected to a kinase reaction for 3 hours at 30° C. Subsequently, 60 μL of Binding Reagent (80% Buffer A, 20% Buffer B, 1:600 Binding Reagent, 1:400 Tb-Donor) was added for a binding reaction for 2 hours at room temperature.
Protocol for hERG current: The test compounds were added to cultured hERG (human Ether-a-go-go Related Gene) gene stably expressing CHO cell line cells to achieve 0.27 to 100 μM.
Protocol for neutrophils: The test compound was weighed out. An empty liposome solution with a total lipid concentration of 50 mM was added so that the compound concentration would be 2 mg/mL, and 1 mol/L hydrochloric acid was added to adjust the pH to 6 to 7. Alternatively, 10 mM L-histidine buffer/10% sucrose solution (pH 6.5) and hydrochloric acid were added to the test compound to dissolve or disperse the compound, and an empty liposome solution with a total lipid concentration of 75 mM was added so that the compound concentration would be 2 mg/mL, and the pH was adjusted to 6 to 7.
Blood was collected 96 hours after the final administration to measure the neutrophil count.

On to `COc1cccc(OCCCN)c1-c1cc(Nc2cnc(C#N)cn2)n[nH]1` [Prexasertib, reference compound], for which the “Compound concentration in liposome solution” value in [1] (setting [10]) was 2160 µg/mL. Besides, the “effect of suppressing myeloid cells induced to differentiate from human bone marrow cells” value in data set [2] is reported as “exhibited an effect of suppressing myeloid cells induced to differentiate from human bone marrow cells”. The “inhibition of CYP3A4 based on MBI” value against CYP3A4 is reported as “exhibits inhibition of CYP3A4 based on MBI”. For the same compound, in data set [3], the “effect of suppressing human bone marrow cell colony formation” value was “exhibits an effect of suppressing human bone marrow cell colony formation” and the “Colony count (/well) mean” value is given as 19 /well. Also, at ARK5/NUAK1, the remaining activity at 0.1 µM amounted to 17.9%.
Usually pIC50 stands for the IC50 on a negative log10 scale, so that one unit is a factor of ten. With `COc1ccnc(OCCCN)c1-c1cc(Nc2cnc(C#N)cn2)n[nH]1` [Example 1, 5-({5-[2-(3-aminopropoxy)-4-methoxypyridin-3-yl]-1H-pyrazol-3-yl}amino)pyrazine-2-carbonitrile], the encapsulation efficiency in data set [1] is given as ≥ 80%. For the same compound, the “Encapsulation efficiency (%)” value in data set [1] (setting [11]) is on record as 87.4%. Further, in data set [1] (pH adjusted by adding 1 mol/L hydrochloric acid), the “liquid viscosity during the liposome encapsulation procedure” value is listed as “increase in viscosity was not found”. Further, the “effect of suppressing myeloid cells induced to differentiate from human bone marrow cells” value in data set [2] is recorded as “does not exhibit an effect of suppressing myeloid cells induced to differentiate from human bone marrow cells”. The “cell growth suppression effect compared with prexasertib” value with ES-2 cells [4] is reported as “excellent cell growth suppression effect that is equivalent to that of prexasertib”. Besides, the liposome encapsulation efficiency in data set [5] is recorded as ≥ 90%. Further, the “Encapsulation efficiency (%)” value in [5] (setting [10]) was 91.3%. The “Encapsulation efficiency (%)” value in data set [5] (setting [11]) is 91.6%. Besides, the “Encapsulation efficiency (%)” value in data set [5] (concentration upon compound introduction 4 mg/mL) is given as 92.2%. In addition, at CYP3A4, the “inhibition of CYP3A4 based on MBI” value is given as “do not exhibit inhibition of CYP3A4 based on MBI” and the “Factor of change in IC50 value” is “Not Detected”. Besides, the “increase of ssDNA in cytoplasm” value in data set [6] is 1.3 times. The “increase of ssDNA in cytoplasm” value in [7] came to 1.5 times. In data set [3], the “effect of suppressing human bone marrow cell colony formation” value is on record as “does not exhibit an effect of suppressing human bone marrow colony formation” and the “Colony count (/well) mean” value is 34 /well. In addition, at hERG current, the hERG/CHK1 is reported as >115000. Further, on CHK1, the “CHK1 inhibitory activity relative to prexasertib” value is reported as ≥ 5 fold, the pIC50 was > 10.00 and the “effect of suppressing CHK1 activity compared with prexasertib” value was “more potent effect of suppressing CHK1 activity than prexasertib”.
For orientation: inhibition means the change of the read-out against control, counted positive when it falls. `COc1cncc(OC[C@@H](F)CN)c1-c1cc(Nc2cnc(C#N)cn2)n[nH]1` [Example 29, 5-[(5-{3-[(2S)-3-amino-2-fluoropropoxy]-5-methoxypyridin-4-yl}-1H-pyrazol-3-yl)amino]pyrazine-2-carbonitrile]: in the data set on ES-2 cells [4], the “cell growth suppression effect compared with prexasertib” value was “excellent cell growth suppression effect that is equivalent to that of prexasertib”. Also, the “Factor of change in IC50 value” at CYP3A4 is listed as “Not Detected”. At hERG current, the hERG/CHK1 was determined as 18667. For the same compound, the pIC50 on hERG current (read-out: hERG inhibition IC50, hERG expressing CHO cells) was 4.95; at CHK1, 9.22. In addition, the inhibition at 0.0001 µM at CHK1 (read-out: CHK1 inhibition % at 0.1 nM) is < 5%.
Consider nivolumab, for which, in data set [8], the overall response rate was 13.3%.
In the case of `Nc1ccn([C@@H]2O[C@H](CO)[C@@H](O)C2(F)F)c(=O)n1` [Gemcitabine], in the data set on ES-2 cells [9], the “CR (%)” value came to 0% and the “T/C (%)” value came to 9%. Moreover, in the data set on neutrophils, the “Ratio of residual neutrophils (%)” value worked out at 39%.

The values above are taken from patent US20250352541A1, “THERAPEUTIC FOR CANCER REFRACTORY TO IMMUNE CHECKPOINT INHIBITOR” (Sumitomo Pharma Co., Ltd., priority 2022, published 2025).
